Reference: ChEMBL document CHEMBL6087472, “Development and Discovery of a Selective Degrader of Casein Kinases 1 δ/ε” (J Med Chem, 2025)
Calls of active or inactive are those of the source. No cut-off for these calls is given here.

Assays:
[1] = biological target: T1, von Hippel-Lindau disease tumor suppressor/Casein kinase I isoform delta (Homo sapiens, UniProt P48730+P40337); test: PROTAC activity at VHL/full length N-terminal Nano-luc fused CK1 delta (unknown origin) transfected in HEK293T cells incubated for 2 hrs followed by substrate addition by NanoBRET target engagement assay; assay type: cell-based
T1 sequence (P40337 whole entry, looked up, the tested form may be a part, canonical isoform): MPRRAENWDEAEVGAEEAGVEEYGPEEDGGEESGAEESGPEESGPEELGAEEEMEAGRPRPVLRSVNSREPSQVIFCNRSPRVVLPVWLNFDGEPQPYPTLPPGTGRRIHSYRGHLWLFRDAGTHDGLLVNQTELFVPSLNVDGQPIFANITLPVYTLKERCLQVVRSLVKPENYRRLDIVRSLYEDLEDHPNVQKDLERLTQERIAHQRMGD
T1 sequence (P48730 whole entry, looked up, the tested form may be a part, canonical isoform): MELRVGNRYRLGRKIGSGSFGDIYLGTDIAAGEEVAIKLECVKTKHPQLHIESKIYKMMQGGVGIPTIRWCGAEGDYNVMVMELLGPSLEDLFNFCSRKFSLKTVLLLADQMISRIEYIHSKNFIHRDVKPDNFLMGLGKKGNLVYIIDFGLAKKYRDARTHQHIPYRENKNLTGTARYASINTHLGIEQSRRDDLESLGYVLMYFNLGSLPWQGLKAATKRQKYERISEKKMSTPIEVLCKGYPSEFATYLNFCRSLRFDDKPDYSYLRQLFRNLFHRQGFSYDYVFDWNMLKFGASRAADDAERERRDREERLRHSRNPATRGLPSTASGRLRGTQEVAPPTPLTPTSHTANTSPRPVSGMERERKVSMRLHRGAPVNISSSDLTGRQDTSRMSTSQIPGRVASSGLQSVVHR

[2] = biological target: T1, von Hippel-Lindau disease tumor suppressor/Casein kinase I isoform delta; test: PROTAC activity at VHL/Hibit-fused CK1 delta in human MV4-11 cells assessed as degradation of CK1-delta incubated for 6 hrs by Nano-Glo HiBiT assay relative to control; assay type: cell-based
[3] = biological target: T1, von Hippel-Lindau disease tumor suppressor/Casein kinase I isoform delta; test: PROTAC activity at VHL/Hibit-fused CK1 delta in human MV4-11 cells assessed as degradation of CK1-delta at 10 nM incubated for 6 hrs by Nano-Glo HiBiT assay; assay type: cell-based
[4] = biological target: T1, von Hippel-Lindau disease tumor suppressor/Casein kinase I isoform delta; test: PROTAC activity at VHL/Hibit-fused CK1 delta in human MV4-11 cells assessed as degradation of CK1 delta at 5 to 10 uM incubated for 6 hrs by Western blot analysis; assay type: cell-based; details: dose 5-10 µM
[5] = biological target: T1, von Hippel-Lindau disease tumor suppressor/Casein kinase I isoform delta; test: PROTAC activity at VHL/CK1 delta in human MV4-11 cells assessed as degradation of CK1-delta at 5 to 10 uM incubated for 6 hrs by Western blot analysis; assay type: cell-based; details: dose 5-10 µM
[6] = biological target: T2, von Hippel-Lindau disease tumor suppressor/Casein kinase I isoform alpha (Homo sapiens) (UniProt P48729+P40337); test: PROTAC activity at VHL/CK1 alpha in HEK293 cells assessed as induction of degradation of CK1 alpha by measuring maximum efficacy at 5 to 10 uM measured after 6 hrs by Western blot analysis relative to control; assay type: cell-based; details: dose 5-10 µM
T2 sequence (P40337 whole entry, looked up, canonical isoform): as the sequence (P40337 whole entry, looked up, the tested form may be a part, canonical isoform) above
T2 sequence (P48729 whole entry, looked up, canonical isoform): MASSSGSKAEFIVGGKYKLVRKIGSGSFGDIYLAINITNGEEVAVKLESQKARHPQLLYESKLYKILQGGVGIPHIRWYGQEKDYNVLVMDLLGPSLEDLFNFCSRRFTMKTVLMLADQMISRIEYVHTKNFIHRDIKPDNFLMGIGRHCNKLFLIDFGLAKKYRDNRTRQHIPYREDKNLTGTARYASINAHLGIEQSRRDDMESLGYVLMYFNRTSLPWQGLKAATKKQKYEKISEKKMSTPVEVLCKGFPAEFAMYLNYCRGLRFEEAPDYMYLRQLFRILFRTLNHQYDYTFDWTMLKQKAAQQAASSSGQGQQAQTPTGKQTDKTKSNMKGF

MV4-11 = test: Cytotoxicity in human MV4-11 cells at 10 uM measured after 72 hrs by alamar blue assay; assay type: functional, cell-based
[7] = biological target: T3, von Hippel-Lindau disease tumor suppressor/Casein kinase I isoform epsilon (Homo sapiens) (UniProt P49674+P40337); test: PROTAC activity at VHL/CK1 epsilon in HEK293 cells assessed as induction of degradation of CK1 epsilon at 0.3 to 1.0 uM measured after 6 hrs by Western blot analysis relative to control; assay type: cell-based; details: dose 0.3-1 µM
T3 sequence (P40337 whole entry, looked up, canonical isoform): as the sequence (P40337 whole entry, looked up, the tested form may be a part, canonical isoform) above
T3 sequence (P49674 whole entry, looked up, canonical isoform): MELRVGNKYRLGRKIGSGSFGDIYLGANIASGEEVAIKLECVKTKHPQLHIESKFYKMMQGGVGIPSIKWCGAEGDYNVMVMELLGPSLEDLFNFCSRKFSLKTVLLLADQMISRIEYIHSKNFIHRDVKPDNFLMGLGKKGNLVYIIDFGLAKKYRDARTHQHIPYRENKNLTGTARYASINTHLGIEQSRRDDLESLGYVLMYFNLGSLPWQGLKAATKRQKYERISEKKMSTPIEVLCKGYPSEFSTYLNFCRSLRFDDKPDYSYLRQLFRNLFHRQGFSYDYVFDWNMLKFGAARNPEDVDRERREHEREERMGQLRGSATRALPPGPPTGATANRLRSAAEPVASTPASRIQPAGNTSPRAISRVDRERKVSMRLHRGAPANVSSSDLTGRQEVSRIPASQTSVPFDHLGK

[8] = biological target: T2, von Hippel-Lindau disease tumor suppressor/Casein kinase I isoform alpha (Homo sapiens); test: PROTAC activity at VHL/CK1 alpha in HEK293 cells assessed as induction of degradation of CK1 alpha at 10 uM measured after 6 hrs by Western blot analysis relative to control; assay type: cell-based
HEK293 [9] = test: Effect on DVL3 phosphorylation in human HEK293 cells at 1 uM measured after 6 hrs by Western blot analysis; assay type: functional, cell-based
HEK293 [10] = test: Effect on VANGL2 phosphorylation in human HEK293 cells at 1 uM measured after 6 hrs by Western blot analysis; assay type: functional, cell-based
[11] = biological target: T2, von Hippel-Lindau disease tumor suppressor/Casein kinase I isoform alpha (Homo sapiens); test: PROTAC activity at VHL/CK1 alpha in human MV4-11 cells assessed as induction of degradation of CK1 alpha by measuring maximum efficacy at 2.5 uM measured after 12 hrs by HiBit assay relative to control; assay type: cell-based
[12] = biological target: T2, von Hippel-Lindau disease tumor suppressor/Casein kinase I isoform alpha (Homo sapiens); test: PROTAC activity at VHL/CK1 alpha in human MV4-11 cells assessed as induction of degradation of CK1 alpha by measuring maximum efficacy at 10 uM measured after 12 hrs by HiBit assay relative to control; assay type: cell-based
[13] = biological target: T2, von Hippel-Lindau disease tumor suppressor/Casein kinase I isoform alpha (Homo sapiens); test: PROTAC activity at VHL/CK1 alpha in human MV4-11 cells assessed as induction of degradation of CK1 alpha measured after 1 hrs by HiBit assay; assay type: cell-based; details: dose 0.625-10 µM
[14] = biological target: T1, von Hippel-Lindau disease tumor suppressor/Casein kinase I isoform delta; test: PROTAC activity at VHL/CK1 delta in human MV4-11 cells assessed as induction of degradation of CK1 delta by measuring maximum efficacy at 0.625 to 10 uM measured after 9 hrs by HiBit assay relative to control; assay type: cell-based; details: dose 0.625-10 µM
[15] = biological target: T3, von Hippel-Lindau disease tumor suppressor/Casein kinase I isoform epsilon (Homo sapiens); test: PROTAC activity at VHL/CK1 epsilon in human U87 cells assessed as induction of degradation of CK1 epsilon at 1 uM measured after 6 hrs; assay type: cell-based
[16] = biological target: T2, von Hippel-Lindau disease tumor suppressor/Casein kinase I isoform alpha (Homo sapiens); test: PROTAC activity at VHL/CK1 alpha in human MDA-MB-231 cells assessed as induction of degradation of CK1 alpha at 1 uM measured after 6 hrs; assay type: cell-based
[17] = biological target: T3, von Hippel-Lindau disease tumor suppressor/Casein kinase I isoform epsilon (Homo sapiens); test: PROTAC activity at VHL/CK1 epsilon in human U87 cells assessed as induction of degradation of CK1 epsilon by measuring maximum efficacy at 1 uM measured after 6 hrs relative to control; assay type: cell-based
[18] = biological target: T1, von Hippel-Lindau disease tumor suppressor/Casein kinase I isoform delta; test: PROTAC activity at VHL/HiBit fused CK1 delta in human MV4-11 cells assessed as fold change at 10 uM measured after 6 hrs in presence of 10 uM of MU1742 by Nano-Glo HiBit assay; assay type: cell-based
[19] = biological target: T1, von Hippel-Lindau disease tumor suppressor/Casein kinase I isoform delta; test: PROTAC activity at VHL/HiBit fused CK1 delta in human MV4-11 cells assessed as fold change at 10 uM measured after 6 hrs in presence of 1 uM of MU1742 by Nano-Glo HiBit assay; assay type: cell-based
[20] = biological target: T1, von Hippel-Lindau disease tumor suppressor/Casein kinase I isoform delta; test: PROTAC activity at VHL/HiBit fused CK1 delta in human MV4-11 cells assessed as fold change at 2.5 uM measured after 6 hrs by Nano-Glo HiBit assay; assay type: cell-based
[21] = biological target: T1, von Hippel-Lindau disease tumor suppressor/Casein kinase I isoform delta; test: PROTAC activity at VHL/HiBit fused CK1 delta in human MV4-11 cells assessed as fold change at 2.5 uM measured after 6 hrs in presence of 10 uM of MU1742 by Nano-Glo HiBit assay; assay type: cell-based
[22] = biological target: T1, von Hippel-Lindau disease tumor suppressor/Casein kinase I isoform delta; test: PROTAC activity at VHL/HiBit fused CK1 delta in human MV4-11 cells assessed as fold change at 2.5 uM measured after 6 hrs in presence of 1 uM of MU1742 by Nano-Glo HiBit assay; assay type: cell-based
[23] = biological target: T1, von Hippel-Lindau disease tumor suppressor/Casein kinase I isoform delta; test: PROTAC activity at VHL/HiBit fused CK1 delta in human MV4-11 cells assessed as fold change at 0.63 uM measured after 6 hrs in presence of MLN4924 by Nano-Glo HiBit assay; assay type: cell-based
[24] = biological target: T1, von Hippel-Lindau disease tumor suppressor/Casein kinase I isoform delta; test: PROTAC activity at VHL/HiBit fused CK1 delta in human MV4-11 cells assessed as fold change at 0.63 uM measured after 6 hrs in presence of 1 uM of MU1742 by Nano-Glo HiBit assay; assay type: cell-based
[25] = biological target: T1, von Hippel-Lindau disease tumor suppressor/Casein kinase I isoform delta; test: PROTAC activity at VHL/CK1 delta in human HEK293 cells at 0.625 to 10 uM in presence of MU1742 by Western blot analysis; assay type: cell-based; details: dose 0.625-10 µM
[26] = biological target: T2, von Hippel-Lindau disease tumor suppressor/Casein kinase I isoform alpha (Homo sapiens); test: PROTAC activity at VHL/CK1 alpha in human HEK293 cells at 0.625 to 10 uM in presence of MU1742 by Western blot analysis; assay type: cell-based; details: dose 0.625-10 µM
[27] = biological target: T3, von Hippel-Lindau disease tumor suppressor/Casein kinase I isoform epsilon (Homo sapiens); test: PROTAC activity at VHL/CK1 epsilon in human HEK293 cells assessed as degradation of CK1 epsilon at 3 to 20 uM incubated overnight followed by compound washout and measured after 1 hr by Nano-Glo HiBiT assay; assay type: cell-based; details: dose 3-20 µM
[28] = biological target: T1, von Hippel-Lindau disease tumor suppressor/Casein kinase I isoform delta; test: PROTAC activity at VHL/Hibit-fused CK1 delta in human MV4-11 cells assessed as half life at 2.5 uM measured upto 12 hrs in presence of cycloheximide by Nano-Glo HiBiT assay (reference value: 3 hrs); assay type: cell-based
[29] = biological target: T3, von Hippel-Lindau disease tumor suppressor/Casein kinase I isoform epsilon (Homo sapiens); test: PROTAC activity at VHL/CK1 epsilon in HEK293 cells assessed as induction of degradation of CK1 epsilon at upto 20 uM pretreated with LGK974 followed by compound addition and measured after 6 hrs by Western blot analysis; assay type: cell-based

In the case of Cc1ncsc1-c1ccc(CNC(=O)[C@H]2C[C@H](O)CN2C(=O)[C@H](NC(=O)CCCCCCC(=O)N2CCC(F)(Cn3cnc(-c4ccc(F)cn4)c3-c3ccnc4[nH]ccc34)CC2)C(C)(C)C)cc1, the Emax [1] was 3.2%, the Emax [2] was 70.1% and the Activity [3] was “Active”. For the same compound, the Activity [4] was “Active”, the Activity [5] was “Active” and the Emax [6] was greater than 50%. For the same compound, the Activity (MV4-11) was “Active; Compound Showed Milder Cytotoxic Effect”, the Activity [7] was 100% and the Activity [8] was “Not active; Compound Showed Weak Degradation”. The Activity (HEK293 [9]) was “Active”, the Activity (HEK293 [10]) was “Active” and the Emax [11] was 20%. For the same compound, the Emax [12] was 50%, the Activity [13] was “Dose-dependent-effect” and the Emax [14] was 75%. For the same compound, the Activity [15] was “Active”, the Activity [16] was “inactive” and the Emax [17] was greater than 50%. For the same compound, the fold change (FC) [18] was 1.02, the fold change (FC) [19] was 0.67 and the fold change (FC) [20] was 0.33. It also gave a fold change (FC) [21] of 1.19, a fold change (FC) [22] of 0.97 and a fold change (FC) [23] of 0.82. The fold change (FC) [24] was 1.19, the Activity [25] was “inactive” and the Activity [26] was “inactive”. The Activity [27] was “inactive”, the T1/2 [28] was 40 min and the Activity [29] was “Active”.
